# PubChem BioAssay (NCI)
#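 GI50 marks 50% less growth. TGI denotes the concentration required for complete inhibition of growth.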
# Columns and labels:
# Assay in all cases: inhibition of tumour cell growth, NCI panel, 384-well format
# 786-0 renal = system: 786-0 renal
# A498 renal = system: A498 renal
# A549 NSCLC = system: A549 NSCLC
# ACHN renal = system: ACHN renal
# BT-549 breast = system: BT-549 breast
# CAKI-1 renal = system: CAKI-1 renal
# CCRF-CEM leukemia = system: CCRF-CEM leukemia
# COLO 205 colon = system: COLO 205 colon
# DU-145 prostate = system: DU-145 prostate
# EKVX NSCLC = system: EKVX NSCLC
# HCC-2998 colon = system: HCC-2998 colon
# HCT-116 colon = system: HCT-116 colon
# HCT-15 colon = system: HCT-15 colon
# HL-60(TB) leukemia = system: HL-60(TB) leukemia
# HOP-62 NSCLC = system: HOP-62 NSCLC
# HOP-92 NSCLC = system: HOP-92 NSCLC
# HT29 colon = system: HT29 colon
# IGROV1 ovarian = system: IGROV1 ovarian
# K-562 leukemia = system: K-562 leukemia
# KM12 colon = system: KM12 colon
# LOX IMVI melanoma = system: LOX IMVI melanoma
# M14 melanoma = system: M14 melanoma
# MALME-3M melanoma = system: MALME-3M melanoma
# MCF7 breast = system: MCF7 breast
# MDA-MB-231 breast = system: MDA-MB-231 breast
# MDA-MB-435 melanoma = system: MDA-MB-435 melanoma
# MDA-MB-468 breast = system: MDA-MB-468 breast
# MOLT-4 leukemia = system: MOLT-4 leukemia
# NCI-H226 lung = system: NCI-H226 lung
# NCI-H23 lung = system: NCI-H23 lung
structure (smiles),measurement,setting,value
CC#C/C(=N\OC[C@H]1COCCN1)c1ccc2ncnc(Nc3ccc(OCc4cccc(F)c4)c(Cl)c3)c2c1,GI50,786-0 renal,1.31 µM
same,TGI,786-0 renal,2.6 µM
same,GI50,A498 renal,1.13 µM
same,TGI,A498 renal,2.34 µM
same,GI50,A549 NSCLC,1.17 µM
same,TGI,A549 NSCLC,2.42 µM
same,GI50,ACHN renal,0.523 µM
same,TGI,ACHN renal,1.99 µM
same,GI50,BT-549 breast,1.51 µM
same,TGI,BT-549 breast,2.85 µM
same,GI50,CAKI-1 renal,1.12 µM
same,TGI,CAKI-1 renal,2.34 µM
same,GI50,CCRF-CEM leukemia,1.5 µM
same,TGI,CCRF-CEM leukemia,2.84 µM
same,GI50,COLO 205 colon,1.96 µM
same,TGI,COLO 205 colon,3.38 µM
same,GI50,DU-145 prostate,1.16 µM
same,TGI,DU-145 prostate,2.42 µM
same,GI50,EKVX NSCLC,1.27 µM
same,TGI,EKVX NSCLC,2.54 µM
same,GI50,HCC-2998 colon,1.54 µM
same,TGI,HCC-2998 colon,2.89 µM
same,GI50,HCT-116 colon,1.66 µM
same,TGI,HCT-116 colon,3.05 µM
same,GI50,HCT-15 colon,1.67 µM
same,TGI,HCT-15 colon,3.05 µM
same,GI50,HL-60(TB) leukemia,2.23 µM
same,TGI,HL-60(TB) leukemia,3.69 µM
same,GI50,HOP-62 NSCLC,1.62 µM
same,TGI,HOP-62 NSCLC,2.98 µM
same,GI50,HOP-92 NSCLC,0.981 µM
same,TGI,HOP-92 NSCLC,2.18 µM
same,GI50,HT29 colon,1.65 µM
same,TGI,HT29 colon,3.04 µM
same,GI50,IGROV1 ovarian,0.261 µM
same,TGI,IGROV1 ovarian,1.87 µM
same,GI50,K-562 leukemia,1.7 µM
same,TGI,K-562 leukemia,3.09 µM
same,GI50,KM12 colon,1.76 µM
same,TGI,KM12 colon,3.16 µM
same,GI50,LOX IMVI melanoma,1.91 µM
same,TGI,LOX IMVI melanoma,3.33 µM
same,GI50,M14 melanoma,1.95 µM
same,TGI,M14 melanoma,3.37 µM
same,GI50,MALME-3M melanoma,1.76 µM
same,TGI,MALME-3M melanoma,3.15 µM
same,GI50,MCF7 breast,1.5 µM
same,TGI,MCF7 breast,2.85 µM
same,GI50,MDA-MB-231 breast,1.73 µM
same,TGI,MDA-MB-231 breast,3.11 µM
same,GI50,MDA-MB-435 melanoma,1.89 µM
same,TGI,MDA-MB-435 melanoma,3.31 µM
same,GI50,MDA-MB-468 breast,0.0557 µM
same,TGI,MDA-MB-468 breast,0.368 µM
same,GI50,MOLT-4 leukemia,1.44 µM
same,TGI,MOLT-4 leukemia,2.76 µM
same,GI50,NCI-H226 lung,1.8 µM
same,TGI,NCI-H226 lung,3.38 µM
same,GI50,NCI-H23 lung,2.02 µM
